Assay results: patent publication US20210386753A1, “METHODS OF ADMINISTERING INTRAVENOUS MELOXICAM PRE-OPERATIVELY AND IN COMBINATION WITH OTHER DRUGS” (BAUDAX BIO, INC., priority 2018, published 2021)
Where two headings read alike, the source gives them in different places.

How the values were obtained:
patients [1] = test: Onset, peak and duration of analgesic effect; type: in vivo, human; conditions: meloxicam administration as disclosed herein (IV)
[2] = following oral administration, cited from earlier work
Plasma Tmax of meloxicam = type: in vivo; conditions: human, 30 mg, methods as disclosed herein (IV bolus)
patients [3] = conditions: intravenous; Prescribing Information; cited from earlier work

Tmax (Plasma Tmax of meloxicam) [min]	Compound	therapeutic window (patients [1])	time of maximum observed plasma concentration (tmax) [2] [h]	time of maximum observed plasma concentration (tmax) ([2]; listed as oral meloxicam) [h]	time for the onset of pain relief (patients [3])
4.8 to 9.6	Cc1cnc(NC(=O)C2=C(O)c3ccccc3S(=O)(=O)N2C)s1 [meloxicam, 4-hydroxy-2-methyl-N-(5-methyl-2-thiazolyl)-2H-1,2-benzothiazine-3-carboxamide-1,1-dioxide]	at least 24 hours	5 to 7	5 to 6	
	O=C(c1ccccc1)c1ccc2n1CCC2C(=O)O (centres unmarked) [ketorolac]				up to 30 minutes
